Data: ChEMBL document CHEMBL3739380, “Discovery of benzothiazoles as antimycobacterial agents: Synthesis, structure-activity relationships and binding studies with Mycobacterium tuberculosis decaprenylphosphoryl-β-D-ribose 2'-oxidase” (Bioorg Med Chem, 2015)
≈ marks a conversion by molar mass, not a printed value.

Key:
[1] = tested on: Mycobacterium tuberculosis; experiment: Antimycobacterial activity against Mycobacterium tuberculosis H37Rv ATCC 27294 after 5 days by microdilution method; format: functional; details: H37Rv ATCC 27294, 120 h
[2] = Inhibition of Mycobacterium tuberculosis DprE1 using farnesyl-phosphoryl-beta-D-ribofuranose as substrate preincubated for 30 mins before substrate addition by peroxidase coupled assay
[3] = tested on: Mycobacterium tuberculosis; experiment: Antimycobacterial activity against Mycobacterium tuberculosis H37Rv ATCC 27294 infected in BMDM assessed as log reduction CFU after 7 days by killing kinetic assay; format: functional
[4] = tested on: Mycobacterium tuberculosis; experiment: Antimycobacterial activity against Mycobacterium tuberculosis H37Rv ATCC 27294 after 2 to 3 weeks by turbidity assay; format: functional
[5] = tested on: Mycobacterium tuberculosis; experiment: Antimycobacterial activity against Mycobacterium tuberculosis H37Rv ATCC 27294 assessed as log reduction CFU after 7 days by killing kinetic assay; format: functional
[6] = tested on: Mycobacterium tuberculosis; experiment: Antimycobacterial activity against Mycobacterium tuberculosis H37Rv ATCC 27294 infected in human THP1 cells assessed as log reduction CFU after 7 days by killing kinetic assay; format: functional, THP-1
Salmonella typhimurium [7] = experiment: Genotoxicity in Salmonella typhimurium TA100 at 50 ug/plate by Ames test in absence of S9 fraction; format: toxicity, organism-based; details: salmonella enterica subsp. enterica serovar typhimurium
[8] = Aqueous solubility of the compound; format: physicochemical; details: buffer
Salmonella typhimurium [9] = experiment: Genotoxicity in Salmonella typhimurium TA100 at 16 ug/plate by Ames test in presence of S9 fraction; format: toxicity, organism-based; details: salmonella enterica subsp. enterica serovar typhimurium
A549 = experiment: Cytotoxicity against human A549 cells after 72 hrs by fluorescence assay; format: cell-based; details: A549, 72 h
Cytochrome P450 2D6 = Cytochrome P450 2D6 (Homo sapiens, UniProt P10635); experiment: Inhibition of human recombinant CYP2D6 by fluorescence assay; format: ADME
Salmonella typhimurium [10] = experiment: Genotoxicity in Salmonella typhimurium TA98 at 160 ug/plate by Ames test in absence of S9 fraction; format: toxicity, organism-based; details: salmonella enterica subsp. enterica serovar typhimurium
Cytochrome P450 2C9 = Cytochrome P450 2C9 (Homo sapiens, UniProt P11712); experiment: Inhibition of human recombinant CYP2C9 by fluorescence assay; format: ADME
Cytochrome P450 1A2 = target: T1, Cytochrome P450 1A2 (Homo sapiens, UniProt P05177); experiment: Inhibition of human recombinant CYP1A2 by fluorescence assay; format: ADME
T1 sequence (P05177 whole entry): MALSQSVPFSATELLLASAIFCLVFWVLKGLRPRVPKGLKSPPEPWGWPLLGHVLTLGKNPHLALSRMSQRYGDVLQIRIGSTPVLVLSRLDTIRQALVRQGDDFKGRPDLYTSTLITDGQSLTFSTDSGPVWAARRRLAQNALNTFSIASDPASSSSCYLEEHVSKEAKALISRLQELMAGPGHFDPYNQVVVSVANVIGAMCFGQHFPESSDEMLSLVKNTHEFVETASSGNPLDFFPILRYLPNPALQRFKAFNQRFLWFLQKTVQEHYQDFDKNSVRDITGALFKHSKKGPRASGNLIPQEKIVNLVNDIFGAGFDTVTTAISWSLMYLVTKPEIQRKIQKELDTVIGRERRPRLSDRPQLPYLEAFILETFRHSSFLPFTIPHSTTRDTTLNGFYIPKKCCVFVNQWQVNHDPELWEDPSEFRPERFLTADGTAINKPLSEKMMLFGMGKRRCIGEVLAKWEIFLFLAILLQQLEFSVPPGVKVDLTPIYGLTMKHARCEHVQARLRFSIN

Cytochrome P450 3A4 = Cytochrome P450 3A4 (Homo sapiens, UniProt P08684); experiment: Inhibition of human recombinant CYP3A4 by fluorescence assay; format: ADME
Salmonella typhimurium [11] = experiment: Genotoxicity in Salmonella typhimurium TA98 at 50 ug/plate by Ames test in presence of S9 fraction; format: toxicity, organism-based; details: salmonella enterica subsp. enterica serovar typhimurium
[12] = Fraction unbound in mouse plasma protein; format: ADME, cell-free
[13] = Intrinsic clearance in mouse liver microsomes; format: ADME; details: read-out: CLH
Cytochrome P450 2C19 = Cytochrome P450 2C19 (Homo sapiens, UniProt P33261); experiment: Inhibition of human recombinant CYP2C19 by fluorescence assay; format: ADME
Salmonella typhimurium [14] = experiment: Genotoxicity in Salmonella typhimurium TA98 at 500 ug/plate by Ames test in absence of S9 fraction; format: toxicity, organism-based; details: salmonella enterica subsp. enterica serovar typhimurium
Salmonella typhimurium [15] = experiment: Genotoxicity in Salmonella typhimurium TA98 at 500 ug/plate by Ames test in presence of S9 fraction; format: toxicity, organism-based; details: salmonella enterica subsp. enterica serovar typhimurium
Salmonella typhimurium [16] = experiment: Genotoxicity in Salmonella typhimurium TA100 at 5000 ug/plate by Ames test in absence of S9 fraction; format: toxicity, organism-based; details: salmonella enterica subsp. enterica serovar typhimurium
Salmonella typhimurium [17] = experiment: Genotoxicity in Salmonella typhimurium TA98 at 5000 ug/plate by Ames test in absence of S9 fraction; format: toxicity, organism-based; details: salmonella enterica subsp. enterica serovar typhimurium
Salmonella typhimurium [18] = experiment: Genotoxicity in Salmonella typhimurium TA100 at 5000 ug/plate by Ames test in presence of S9 fraction; format: toxicity, organism-based; details: salmonella enterica subsp. enterica serovar typhimurium
Salmonella typhimurium [19] = experiment: Genotoxicity in Salmonella typhimurium TA98 at 5000 ug/plate by Ames test in presence of S9 fraction; format: toxicity, organism-based; details: salmonella enterica subsp. enterica serovar typhimurium
[20] = Volume of distribution at steady state in mouse; format: ADME, organism-based; details: in vivo, read-out: Vdss
[21] = AUC100 in po dosed mouse; format: ADME, organism-based; details: in vivo
[22] = Clearance in iv dosed mouse; format: ADME, organism-based; details: in vivo

Chain of Cytochrome P450 3A4 (P08684 whole entry): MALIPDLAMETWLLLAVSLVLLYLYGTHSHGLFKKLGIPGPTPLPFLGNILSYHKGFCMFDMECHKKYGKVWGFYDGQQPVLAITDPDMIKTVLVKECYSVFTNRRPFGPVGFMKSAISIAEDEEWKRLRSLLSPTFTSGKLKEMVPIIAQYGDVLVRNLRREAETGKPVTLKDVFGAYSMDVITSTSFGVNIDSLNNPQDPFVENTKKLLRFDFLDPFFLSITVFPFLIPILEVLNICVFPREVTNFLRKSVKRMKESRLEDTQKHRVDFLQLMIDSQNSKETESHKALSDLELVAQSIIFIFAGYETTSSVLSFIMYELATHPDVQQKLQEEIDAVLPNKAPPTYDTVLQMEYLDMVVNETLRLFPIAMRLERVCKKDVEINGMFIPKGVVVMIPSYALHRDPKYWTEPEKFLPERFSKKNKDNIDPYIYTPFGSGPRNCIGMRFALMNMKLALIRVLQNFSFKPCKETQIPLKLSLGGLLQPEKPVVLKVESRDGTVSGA
Chain of Cytochrome P450 2D6 (P10635 whole entry): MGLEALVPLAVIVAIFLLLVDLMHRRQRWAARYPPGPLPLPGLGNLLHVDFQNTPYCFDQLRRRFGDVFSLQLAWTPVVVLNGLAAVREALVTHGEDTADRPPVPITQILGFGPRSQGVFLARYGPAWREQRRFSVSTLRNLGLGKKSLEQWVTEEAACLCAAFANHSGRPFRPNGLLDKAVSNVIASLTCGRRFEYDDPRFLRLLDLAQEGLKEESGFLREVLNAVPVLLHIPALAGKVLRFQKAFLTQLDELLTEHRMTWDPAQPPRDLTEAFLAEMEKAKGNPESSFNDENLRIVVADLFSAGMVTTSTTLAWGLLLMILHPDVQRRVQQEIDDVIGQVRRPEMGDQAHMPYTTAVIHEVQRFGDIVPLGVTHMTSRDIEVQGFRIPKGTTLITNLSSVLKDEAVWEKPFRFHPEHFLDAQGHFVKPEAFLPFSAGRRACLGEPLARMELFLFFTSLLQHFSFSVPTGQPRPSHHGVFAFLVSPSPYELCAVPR
Chain of Cytochrome P450 2C19 (P33261 whole entry): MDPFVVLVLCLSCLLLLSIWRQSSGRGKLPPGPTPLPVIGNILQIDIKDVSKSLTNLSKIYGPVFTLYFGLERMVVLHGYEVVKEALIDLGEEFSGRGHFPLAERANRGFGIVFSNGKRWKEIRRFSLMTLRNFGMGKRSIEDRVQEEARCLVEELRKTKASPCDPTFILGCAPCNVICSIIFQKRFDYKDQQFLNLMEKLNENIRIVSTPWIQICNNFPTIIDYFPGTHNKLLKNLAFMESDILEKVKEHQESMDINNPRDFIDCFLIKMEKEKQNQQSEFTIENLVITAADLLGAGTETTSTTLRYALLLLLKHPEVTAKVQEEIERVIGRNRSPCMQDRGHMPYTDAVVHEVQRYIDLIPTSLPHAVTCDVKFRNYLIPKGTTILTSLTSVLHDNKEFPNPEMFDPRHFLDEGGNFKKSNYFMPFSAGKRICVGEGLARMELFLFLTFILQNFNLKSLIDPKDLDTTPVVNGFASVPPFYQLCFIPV
Chain of Cytochrome P450 2C9 (P11712 whole entry): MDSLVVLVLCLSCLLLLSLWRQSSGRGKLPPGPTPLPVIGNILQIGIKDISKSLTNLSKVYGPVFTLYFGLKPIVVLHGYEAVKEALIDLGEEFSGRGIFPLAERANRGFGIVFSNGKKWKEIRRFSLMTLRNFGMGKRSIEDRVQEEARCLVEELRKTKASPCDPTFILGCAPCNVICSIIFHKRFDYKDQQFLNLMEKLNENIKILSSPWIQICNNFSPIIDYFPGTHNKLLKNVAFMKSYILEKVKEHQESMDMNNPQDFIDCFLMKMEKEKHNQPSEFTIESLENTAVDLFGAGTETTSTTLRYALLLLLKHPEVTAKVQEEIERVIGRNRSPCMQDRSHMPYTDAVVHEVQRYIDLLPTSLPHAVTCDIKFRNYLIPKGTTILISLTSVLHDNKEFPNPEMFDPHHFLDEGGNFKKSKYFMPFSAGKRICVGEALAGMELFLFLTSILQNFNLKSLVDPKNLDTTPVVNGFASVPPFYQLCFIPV

## O=C(c1nc2cc(C(F)(F)F)cc(B(O)O)c2s1)N1CCCCC1
[1]
  MIC: > 32 µg/mL

## Cc1c(C(F)(F)F)cc2nc(C(=O)NCc3ccccn3)sc2c1[N+](=O)[O-]
[2]
  IC50: 1.2 µM
[1]
  MIC: 0.3 µg/mL (≈ 0.757 µM)

## O=C(NCc1ccccn1)c1nc2cc(C(F)(F)F)cc([N+](=O)[O-])c2s1
[3]
  Activity: 1 log10CFU/ml
[2]
  IC50: 0.452 µM
[4]
  MIC: 0.12 µg/mL (≈ 0.314 µM)
[5]
  Activity: 2.5 log10CFU/ml
[1]
  MIC: 0.6 µg/mL (≈ 1.57 µM)
[6]
  Activity: 1 log10CFU/ml

## N#Cc1cc([N+](=O)[O-])c2sc(C(=O)N3CCCCC3)nc2c1
[2]
  IC50: 1.8 µM
[1]
  MIC: 1 µg/mL (≈ 3.16 µM)

## O=C(NCc1ccccn1)c1sc2c([N+](=O)[O-])cc(C(F)(F)F)cc2[n+]1[O-]
[2]
  IC50: 0.026 µM
[4]
  MIC: 0.01 µg/mL (≈ 0.0251 µM)
[5]
  Activity: 2.5 log10CFU/ml
[1]
  MIC: 0.02 µg/mL (≈ 0.0502 µM)

## O=C(c1sc2c([N+](=O)[O-])cc(C(F)(F)F)cc2[n+]1[O-])N1CCCCC1
Salmonella typhimurium [7]
  Activity: Toxic
[8]
  solubility: 84.7 µM (≈ 31.8 µg/mL)
Salmonella typhimurium [9]
  Activity: Toxic
A549
  IC50: 24 µM
Cytochrome P450 2D6
  IC50: 1.21 µM
Salmonella typhimurium [10]
  Activity: Toxic
Cytochrome P450 2C9; read-out: IC50
  IC50: 26.6 µM
Cytochrome P450 1A2
  IC50: 14.7 µM
[2]
  IC50: 0.095 µM
Cytochrome P450 3A4
  IC50: 3.91 µM
Salmonella typhimurium [11]
  Activity: Toxic
[12]
  fraction unbound: 0.103
[1]
  MIC: 0.03 µg/mL (≈ 0.0799 µM)
[13]
  microsomal CLint: 102 µL/min/mg
Cytochrome P450 2C19
  IC50: 17.7 µM

## O=C(N[C@@H](CO)C(=O)N1CCCC1)c1nc2cc(C(F)(F)F)cc([N+](=O)[O-])c2s1
[2]
  IC50: 0.349 µM
[1]
  MIC: 0.35 µg/mL (≈ 0.809 µM)

## O=C(c1nc2cc(C(F)(F)F)cc([N+](=O)[O-])c2s1)N1CCOCC1
[2]
  IC50: 0.3 µM
[1]
  MIC: 0.1 µg/mL (≈ 0.277 µM)

## C[C@H](NC(=O)c1sc2c([N+](=O)[O-])cc(C(F)(F)F)cc2[n+]1[O-])C(=O)C1CCCC1
[3]
  Activity: 1 log10CFU/ml
[2]
  IC50: 0.06 µM
[1]
  MIC: 0.02 µg/mL (≈ 0.0464 µM)
[6]
  Activity: 1 log10CFU/ml

## N#Cc1cc(C(F)(F)F)cc2nc(C(=O)N3CCCCC3)sc12
[1]
  MIC: > 32 µg/mL

## O=C(c1nc2cc(C(F)(F)F)cc([N+](=O)[O-])c2s1)N1CCCCC1
Salmonella typhimurium [7]
  Activity: Toxic
Salmonella typhimurium [9]
  Activity: Toxic
Salmonella typhimurium [14]
  Activity: Toxic
[2]
  IC50: 0.213 µM
Salmonella typhimurium [15]
  Activity: Toxic
[1]
  MIC: 0.7 µg/mL (≈ 1.95 µM)

## O=C(NCc1ccccn1)c1nc2cc(C(F)(F)F)ccc2s1
[2]
  IC50: > 100 µM
[1]
  MIC: > 32 µg/mL

## Cc1c(C(F)(F)F)cc2nc(C(=O)N[C@@H](CCO)C(=O)N3CCCCC3)sc2c1[N+](=O)[O-]
[3]
  Activity: 1 log10CFU/ml
[2]
  IC50: 1.2 µM
[1]
  MIC: 0.7 µg/mL (≈ 1.48 µM)
[6]
  Activity: 1 log10CFU/ml

## O=C(O)c1cc(C(F)(F)F)cc2nc(C(=O)N3CCCCC3)sc12
[2]
  IC50: > 100 µM
[1]
  MIC: > 32 µg/mL

## Cc1c(C(F)(F)F)cc2nc(C(=O)N[C@@H](CO)C(=O)N3CCCC3)sc2c1[N+](=O)[O-]
[2]
  IC50: 1.2 µM
[1]
  MIC: 1 µg/mL (≈ 2.24 µM)

## O=C(c1nc2cc(C(F)(F)F)cc(-[n+]3cc([O-])on3)c2s1)N1CCCCC1
[2]
  IC50: 28.2 µM
[1]
  MIC: 32 µg/mL (≈ 80.3 µM)

## O=[N+]([O-])c1cc(C(F)(F)F)cc2c1sc(C1=NCCO1)[n+]2[O-]
Salmonella typhimurium [7]
  Activity: Toxic
Salmonella typhimurium [9]
  Activity: Toxic
Salmonella typhimurium [10]
  Activity: Toxic
[2]
  IC50: 0.276 µM
Salmonella typhimurium [11]
  Activity: Toxic
[1]
  MIC: 0.4 µg/mL (≈ 1.2 µM)

## Cc1c(C(F)(F)F)cc2nc(C(=O)N3CCCCC3)sc2c1[N+](=O)[O-]
Salmonella typhimurium [16]
  Activity: Non-toxic
[2]
  IC50: 2.2 µM
Salmonella typhimurium [17]
  Activity: Non-toxic
[4]
  MIC: 0.5 µg/mL (≈ 1.34 µM)
[1]
  MIC: 0.25 µg/mL (≈ 0.67 µM)
Salmonella typhimurium [18]
  Activity: Non-toxic
Salmonella typhimurium [19]
  Activity: Non-toxic

## O=[N+]([O-])c1cc(C(F)(F)F)cc2nc(CN3CCOCC3)sc12
[2]
  IC50: 5.2 µM
[1]
  MIC: > 32 µg/mL

## COCCN1CCN(C(=O)c2nc3cc(C(F)(F)F)c(C)c([N+](=O)[O-])c3s2)CC1
Salmonella typhimurium [16]
  Activity: Non-toxic
[8]
  solubility: 73 µM (≈ 31.6 µg/mL)
A549
  IC50: 100 µM
Cytochrome P450 2D6
  IC50: 58.6 µM
Cytochrome P450 2C9
  IC50: Not Active
Cytochrome P450 1A2
  IC50: 9.56 µM
[2]
  IC50: 1.7 µM
Cytochrome P450 3A4
  IC50: 95 µM
Salmonella typhimurium [17]
  Activity: Non-toxic
[20]
  Vd: 24.5 L/kg
[4]
  MIC: 2 µg/mL (≈ 4.63 µM)
[12]
  fraction unbound: 0.043
[1]
  MIC: 2 µg/mL (≈ 4.63 µM)
[21]
  AUC: 570 ng·h/mL
[22]
  clearance: 146 mL/min/kg
[13]
  microsomal CLint: < 4 µL/min/mg
Cytochrome P450 2C19
  IC50: 64.9 µM
Salmonella typhimurium [18]
  Activity: Non-toxic
Salmonella typhimurium [19]
  Activity: Non-toxic

## COCCN1CCN(C(=O)c2nc3cc(C(F)(F)F)cc([N+](=O)[O-])c3s2)CC1
Salmonella typhimurium [7]
  Activity: Toxic
[8]
  solubility: 331 µM (≈ 138 µg/mL)
Salmonella typhimurium [9]
  Activity: Toxic
Salmonella typhimurium [14]
  Activity: Toxic
A549
  IC50: 90 µM
Cytochrome P450 2D6
  IC50: 5.24 µM
Cytochrome P450 2C9
  IC50: Not Active
Cytochrome P450 1A2
  IC50: 17.9 µM
[2]
  IC50: 0.247 µM
Salmonella typhimurium [15]
  Activity: Toxic
Cytochrome P450 3A4
  IC50: 19.5 µM
[12]
  fraction unbound: 0.061
[1]
  MIC: 0.21 µg/mL (≈ 0.502 µM)
[13]
  microsomal CLint: 25 µL/min/mg
Cytochrome P450 2C19
  IC50: 55.9 µM

## Cc1c(C(F)(F)F)cc2nc(C3=NCCO3)sc2c1[N+](=O)[O-]
Salmonella typhimurium [16]
  Activity: Non-toxic
[2]
  IC50: 3.9 µM
Salmonella typhimurium [17]
  Activity: Non-toxic
[1]
  MIC: 8 µg/mL (≈ 24.1 µM)
Salmonella typhimurium [18]
  Activity: Non-toxic
Salmonella typhimurium [19]
  Activity: Non-toxic

## CNC(=O)c1cc([N+](=O)[O-])c2sc(C(=O)N3CCCCC3)nc2c1
[2]
  IC50: 53 µM
[1]
  MIC: 32 µg/mL (≈ 91.9 µM)
